# Legend:
# PWR-1E cells = assay: MTT cell proliferation assay, 7 d, PWR-1E; format: cell-based; settings: Homo sapiens, 168 h, immortalized untransformed prostate cells, 7 d treatment
# Description: (§1) Androgen-dependent (LNCaP), androgen-independent (PC-3) and castration resistant (C4-2B and 22Rv1) human prostate carcinoma cells were procured from American Type Culture Collection, Manassas, VA, USA and maintained in RPMI 1640 media (Gibco-Life Technologies, Grand Island, NY, USA) supplemented with 10% fetal bovine serum and 1% penicillin/streptomycin. […] Immortalized untransformed prostate epithelial cells, PWR1E from American Type Culture Collection were maintained in serum-free Keratinocyte media (Gibco) supplemented with epidermal growth factor and bovine pituitary extract. All cell lines were maintained in a 37 °C/5% CO2 humidified atmosphere.
# (§2) Cell proliferation assay was performed as described previously. For cell growth experiment, cells were treated with the NRs for 7 days. MTT assay was performed at the end of the experiment. Calculations of combination indices were done using the Calcusyn program (Biosoft, Cambridge, United Kingdom). For colony formation assay, cells were plated 1000 per well in complete media and allowed to adhere for 24 h. The next day cells were treated with indicated compounds (5 μM). After 24 h compound containing media were removed, and cells were allowed to form colonies in complete media. Approximately 2 weeks later the colonies were fixed, stained with 0.5% crystal violet (sigma) for 30 min and counted manually. Results represent the mean ± standard deviation of three independent experiments.
# PC-3 cells = assay: MTT cell proliferation assay, 7 d, PC-3; format: cell-based; settings: Homo sapiens, PC-3, 168 h, 7 d treatment
# Description: as §1, §2
# C4-2B cells = assay: MTT cell proliferation assay, 7 d, C4-2B; format: cell-based; settings: Homo sapiens, 168 h, 7 d treatment
# Description: as §1, §2
# PCa cells = assay: MTT cell viability in PCa cells (LNCaP, PC-3, C4-2B, 22Rv1); format: cell-based, human; settings: Homo sapiens, range over PCa cell lines
# Protocol: as §2
# fAR, MNK1, MNK2, peIF4E = assay: Western blot of fAR, MNK1, MNK2, peIF4E in VNLG-152 treated LNCaP cells; format: cell-based, human
# Protocol: Figure 6 Effect of siAR, siMNK1 on LNCaP cell viability, and VNLG-152 on key and downstream proteins in LNCaP cells (A) Western blot analysis of the expression of fAR, MNK1 and peIF4E in LNCaP cells transfected with 100 nM of siAR, siMNK1 and combinations for 18 h. (B) Effect of VNLG-152 (5 μmol) on cell proliferation in LNCaP cells transfected with siAR, siMNK1 and combinations as determined by MTT assay. The results represent the mean ± SEM of three independent experiments and are represented as a bar graph after normalizing to control cells. *, P< 0.05; ♣, P<0.01 compared with vehicle treated control. (C) Dose-dependent effect of VNLG-152 on the expression of AR, MNKs, peIF4E and downstream target proteins. Total cell lysate from LNCaP cells treated with VNLG-152 (0 - 20 μmol/L) for 24 h were separated by SDS-PAGE and probed with corresponding antibodies. Vehicle treated cells were included as control and all blots were reprobed for β-actin to ensure equal protein loading.
# Figure 7 VNLG-152 induced AR degradation by ubiquitin proteasomal pathway in LNCaP cells (A) Western blot analysis of the expression of fAR in LNCaP cells treated with VNLG-152 (20 μmol/L) in the presence or absence of CHX (10 μmol/L) at 6, 12 and 24 h of treatment. (B) Densitometric analysis of the expression of fAR in different groups *, P< 0.05; ♣, P<0.01 compared with vehicle treated control. (C) Western blot analysis of the expression of fAR in LNCaP cells treated with VNLG-152 (20 μmol/L) in the presence or absence of MG-132 (5 μmol/L). (D) LNCaP cells were treated with 20 μmol/L of VNLG-152, 5 μmol/L of MG-132, and combinations for 24 h. AR protein was immunoprecipitated with AR antibody (mouse) and the precipitated protein was subjected to western blot analysis with anti-ubiquitin antibody (Ub) ([…]). The same blot was used to detect AR protein with anti-AR (rabbit) antibody after stripping (C, lower panel). […]
smiles,measurement,setting,value
CC1=C(/C=C/C(C)=C/C=C/C(C)=C/C(=O)Nc2ccc(F)cc2)C(C)(C)CCC1n1ccnc1 (racemic) [VNLG-152],GI50,PWR-1E cells,47.9 µM
same,GI50,PC-3 cells,5.62 µM
same,GI50,C4-2B cells,1540 nM
same,GI50,PCa cells,1.5 to 5.5 µM
same,time by which AR and MNK (MNK1 and MNK2) were profoundly reduced,"fAR, MNK1, MNK2, peIF4E; 20 μmol/L",≤ 12 h
same,concentration of maximal effect on MNK2 expression,"fAR, MNK1, MNK2, peIF4E; 0.6-20 μM, 24 h",20 µM
same,"concentration with notable decrease in expression of fAR, MNK1 and peIF4E","fAR, MNK1, MNK2, peIF4E; 0.6-20 μM, 24 h",≥ 2.5 µM

# From paper PMC4413647, “Simultaneous targeting of androgen receptor (AR) and MAPK-interacting kinases (MNKs) by novel retinamides inhibits growth of human prostate cancer cell lines” (Oncotarget, 2014)
